Experimental data taken from US20240059700A1, “NOVEL DIACYLGLYCERIDE O-ACYLTRANSFERASE 2 INHIBITORS” (Merck Sharp & Dohme LLC, priority 2020, published 2024).

Target: human DGAT2 (hDGAT2) (Homo sapiens (Human), UniProt Q96PD7)
Assay: DGAT2 Enzymatic Activity Assay
Format: biochemical
Conditions: membrane prep of Sf-9 insect cells expressing hDGAT2; 13C18-triolein product by LC/MS/MS
Procedure, shortened: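 Membranes from Sf-9 cells infected with untagged hDGAT2 baculovirus (8 ng/μL) incubated at rt in 100 mM Tris pH 7.0, 20 mM MgCl2, 5% ethanol with 25 μM diolein and 5 μM 13C oleoyl-CoA. 13C18-triolein product quantified by LC/MS/MS against 13C21-triolein internal standard; IC50 by 4-parameter fit.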

human DGAT2 (hDGAT2), sequence (Q96PD7 whole entry): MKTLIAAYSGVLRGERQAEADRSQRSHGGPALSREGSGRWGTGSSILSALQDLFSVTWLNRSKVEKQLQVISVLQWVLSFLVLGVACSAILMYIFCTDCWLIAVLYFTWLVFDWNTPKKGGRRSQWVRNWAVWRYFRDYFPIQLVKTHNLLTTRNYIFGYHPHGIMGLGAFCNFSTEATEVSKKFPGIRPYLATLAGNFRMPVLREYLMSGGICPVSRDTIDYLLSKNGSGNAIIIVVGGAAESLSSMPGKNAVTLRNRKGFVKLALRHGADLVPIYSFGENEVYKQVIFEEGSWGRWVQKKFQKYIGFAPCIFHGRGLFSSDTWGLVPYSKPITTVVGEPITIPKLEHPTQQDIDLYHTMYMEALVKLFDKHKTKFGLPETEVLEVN

SMILES | IC50 [nM]
Cn1nccc1-c1cn(-c2ccc(F)cc2)c2cc(C(=O)N[C@@]3(C)CCS(=O)(=O)C3)cnc12 [Example 13, (S)-1-(4-fluorophenyl)-N-(3-methyl-1,1-dioxidotetrahydrothiophen-3-yl)-3-(1-methyl-1H-pyrazol-5-yl)-1H-pyrrolo[3,2-b]pyridine-6-carboxamide] | 89
N[C@@H]1CCC[C@@H]1NC(=O)c1cnc2c(-c3cccc(OC(F)F)c3)cn(-c3ncc(F)cn3)c2c1 [Example 23, N-((1S,2R)-2-aminocyclopentyl)-3-(3-(difluoromethoxy)phenyl)-1-(5-fluoropyrimidin-2-yl)-1H-pyrrolo[3,2-b]pyridine-6-carboxamide] | 173
CCOc1cc(-c2nn(C(C)C)c3cc(C(=O)N[C@@]4(C)CCC[C@H]4O)cnc23)c(F)cn1 [Example 57, 3-(2-ethoxy-5-fluoropyridin-4-yl)-N-((1S,2R)-2-hydroxy-1-methylcyclopentyl)-1-isopropyl-1H-pyrazolo[4,3-b]pyridine-6-carboxamide] | 15
CC(C)n1nc(-c2cncc(C3CC3)c2)c2ncc(C(=O)NC3(C)CS(=O)(=O)C3)cc21 [Example 101, 3-(5-cyclopropyl-3-pyridyl)-1-isopropyl-N-(3-methyl-1,1-dioxo-thietan-3-yl)pyrazolo[4,3-b]pyridine-6-carboxamide] | 85
CC(C)n1nc(-c2cccc(OC(F)F)c2)c2ncc(C(=O)NC(C)(C)C(C)(C)O)cc21 [Example 43, 3-(3-(difluoromethoxy)phenyl)-N-(3-hydroxy-2,3-dimethylbutan-2-yl)-1-isopropyl-1H-pyrazolo[4,3-b]pyridine-6-carboxamide] | 148
C[C@]1(NC(=O)c2ccc3c(-c4ccccc4Cl)cn(-c4ccc(F)cc4)c3n2)CCS(=O)(=O)C1 [Example 10, (S)-3-(2-chlorophenyl)-1-(4-fluorophenyl)-N-(3-methyl-1,1-dioxidotetrahydrothiophen-3-yl)-1H-pyrrolo[2,3-b]pyridine-6-carboxamide] | 3700
CC(C)NC(=O)c1cnc2c(-c3cccc(OC(F)F)c3)cn(-c3ncc(F)cn3)c2c1 [Example 16, 3-(3-(difluoromethoxy)phenyl)-1-(5-fluoropyrirnidin-2-yl)-N-isopropyl-1H-pyrrolo[3,2-b]pyridine-6-carboxamide] | 209
C[C@]1(NC(=O)c2cnc3c(-c4cccc(OC(F)F)c4)cn(C4CCOCC4)c3c2)CCS(=O)(=O)C1 [Example 81, (S)-3-(3-(difluoromethoxy)phenyl)-N-(3-methyl-1,1-dioxidotetrahydrothiophen-3-yl)-1-(tetrahydro-2H-pyran-4-yl)-1H-pyrrolo[3,2-b]pyridine-6-carboxamide] | 208
CC(C)n1nc(-c2cncc(OC3CC3)c2)c2ncc(C(=O)NC3(C)CS(=O)(=O)C3)cc21 [Example 106, 3-(5-cyclopropoxypyridin-3-yl)-1-isopropyl-N-(3-methyl-1,1-dioxidothietan-3-yl)-1H-pyrazolo[4,3-b]pyridine-6-carboxamide] | 46
CC(C)n1nc(-c2cccc(OC(F)F)c2)c2ncc(C(=O)NC3(CO)CC(F)(F)C3)cc21 [Example 51, N-(3,3-difluoro-1-(hydroxymethyl)cyclobutyl)-3-(3-(difluoromethoxy)phenyl)-1-isopropyl-1H-pyrazolo[4,3-b]pyridine-6-carboxamide] | 17
CC1(NC(=O)c2cnc3c(-c4cccc(OC(F)F)c4)nn(CC4CCOCC4)c3c2)CS(=O)(=O)C1 [Example 69, 3-(3-(difluoromethoxy)phenyl)-N-(3-methyl-1,1-dioxidothietan-3-yl)-1-((tetrahydro-2H-pyran-4-yl)methyl)-1H-pyrazolo[4,3-b]pyridine-6-carboxamide] | 59
CC(C)n1nc(-c2cc(OC(F)(F)F)ccc2F)c2ncc(C(=O)NC3(C)CCS(=O)(=O)CC3)cc21 [Example 118, 3-(2-fluoro-5-(trifluoromethoxy)phenyl)-1-isopropyl-N-(4-methyl-1,1-dioxidotetrahydro-2H-thiopyran-4-yl)-1H-pyrazolo[4,3-b]pyridine-6-carboxamide] | 20
CC1(NC(=O)c2cnc3c(-c4cccc(OC(F)F)c4)nn(Cc4ccc(F)cc4)c3c2)CS(=O)(=O)C1 [Example 70, 3-(3-(difluoromethoxy)phenyl)-1-(4-fluorobenzyl)-N-(3-methyl-1,1-dioxidothietan-3-yl)-1H-pyrazolo[4,3-b]pyridine-6-carboxamide] | 40
CC(C)n1nc(-c2cc(OC3CCC3)ccc2F)c2ncc(C(=O)NC3(C)CS(=O)(=O)C3)cc21 [Example 109, 3-(5-cyclobutoxy-2-fluorophenyl)-1-isopropyl-N-(3-methyl-1,1-dioxidothietan-3-yl)-1H-pyrazolo[4,3-b]pyridine-6-carboxamide] | 11
CC(C)n1nc(-c2cccc(C3CC3)c2)c2ncc(C(=O)NC3(C)CS(=O)(=O)C3)cc21 [Example 92, 3-(3-cyclopropylphenyl)-1-isopropyl-N-(3-methyl-1,1-dioxidothietan-3-yl)-1H-pyrazolo[4,3-b]pyridine-6-carboxamide] | 31
CC(C)n1nc(-c2cc(OC(F)F)ccc2F)c2ncc(C(=O)NC(C)(C)CN(C)C)cc21 [Example 55, 3-(5-(difluoromethoxy)-2-fluorophenyl)-N-(1-(dimethylamino)-2-methylpropan-2-yl)-1-isopropyl-1H-pyrazolo[4,3-b]pyridine-6-carboxamide] | 212
CC1(NC(=O)c2cnc3c(-c4cccc(OC(F)F)c4)nn(C4CC(F)(F)C4)c3c2)CS(=O)(=O)C1 [Example 86, 1-(3,3-difluorocyclobutyl)-3-(3-(difluoromethoxy)phenyl)-N-(3-methyl-1,1-dioxidothietan-3-yl)-1H-pyrazolo[4,3-b]pyridine-6-carboxamide] | 24
CC1(NC(=O)c2cnc3c(-c4cccc(OC(F)F)c4)nn(C4CC(O)C4)c3c2)CS(=O)(=O)C1 (centres unmarked) [Example 88, 3-(3-(difluoromethoxy)phenyl)-1-(3-hydroxycyclobutyl)-N-(3-methyl-1,1-dioxidothietan-3-yl)-1H-pyrazolo[4,3-b]pyridine-6-carboxamide] | 80
CC(CS(C)(=O)=O)NC(=O)c1cnc2c(-c3cccc(OC(F)F)c3)cn(-c3ncc(F)cn3)c2c1 (centres unmarked) [Example 17, 3-(3-(difluoromethoxy)phenyl)-1-(5-fluoropyrimidin-2-yl)-N-(1-(methylsulfonyl)propan-2-yl)-1H-pyrrolo[3,2-b]pyridine-6-carboxamide] | 72
CC1(NC(=O)c2cnc3c(-c4cccc(OC(F)F)c4)nn(C4COC4)c3c2)CS(=O)(=O)C1 [Example 61, 3-[3-(difluoromethoxy)phenyl]-N-(3-methyl-1,1-dioxo-thietan-3-yl)-1-(oxetan-3-yl)pyrazolo[4,3-b]pyridine-6-carboxamide] | 65

Further lines, results first:

IC50 [nM] | SMILES
52 | CC(C)n1nc(-c2cncc(OC(F)F)c2)c2ncc(C(=O)N[C@H]3CCCC[C@@H]3O)cc21 [Example 99, 3-[5-(difluoromethoxy)-3-pyridyl]-N-[(1S,2S)-2-hydroxycyclohexyl]-1-isopropyl-pyrazolo[4,3-b]pyridine-6-carboxamide]
99 | CC1(NC(=O)c2cnc3c(-c4cccc(OC(F)F)c4)nn(C4CC4)c3c2)CS(=O)(=O)C1 [Example 30, 1-cyclopropyl-3-(3-(difluoromethoxy)phenyl)-N-(3-methyl-1,1-dioxidothietan-3-yl)-1H-pyrazolo[4,3-b]pyridine-6-carboxamide]
487 | Cc1nc2c(-c3nn(C(C)C)c4cc(C(=O)NC5(C)CS(=O)(=O)C5)cnc34)cccc2o1 [Example 123, 1-isopropyl-N-(3-methyl-1,1-dioxidothietan-3-yl)-3-(2-methylbenzo[d]oxazol-4-yl)-1H-pyrazolo[4,3-b]pyridine-6-carboxamide]
620 | CC(=O)Nc1ccc(-c2nn(C(C)C)c3cc(C(=O)NC4(C)CS(=O)(=O)C4)cnc23)cc1O [Example 124, 3-(4-acetamido-3-hydroxyphenyl)-1-isopropyl-N-(3-methyl-1,1-dioxidothietan-3-yl)-1H-pyrazolo[4,3-b]pyridine-6-carboxamide]
18 | CC1(NC(=O)c2cnc3c(-c4cccc(OC(F)F)c4)nn(C4CCOCC4)c3c2)CS(=O)(=O)C1 [Example 63, 3-(3-(difluoromethoxy)phenyl)-N-(3-methyl-1,1-dioxidothietan-3-yl)-1-(tetrahydro-2H-pyran-4-yl)-1H-pyrazolo[4,3-b]pyridine-6-carboxamide]
356 | C[C@@]1(NC(=O)c2cnc3c(-c4ccccc4Cl)cn(-c4ccc(F)cc4)c3c2)CCS(=O)(=O)C1 [Example 12, (R)-3-(2-chlorophenyl)-1-(4-fluorophenyl)-N-(3-methyl-1,1-dioxidotetrahydrothiophen-3-yl)-1H-pyrrolo[3,2-b]pyridine-6-carboxamide]
142 | Cn1nccc1-c1nn(-c2ccc(F)cc2)c2cc(C(=O)N[C@@]3(C)CCS(=O)(=O)C3)cnc12 [Example 2, (S)-1-(4-fluorophenyl)-N-(3-methyl-1,1-dioxidotetrahydrothiophen-3-yl)-3-(1-methyl-1H-pyrazol-5-yl)-1H-pyrazolo[4,3-b]pyridine-6-carboxamide]
119 | CN(C)[C@H]1COC[C@@H]1NC(=O)c1cnc2c(-c3cccc(OC(F)F)c3)cn(-c3ncc(F)cn3)c2c1 [Example 8, 3-(3-(difluoromethoxy)phenyl)-N-((3R,4R)-4-(dimethylamino)tetrahydrofuran-3-yl)-1-(5-fluoropyrimidin-2-yl)-1H-pyrrolo[3,2-b]pyridine-6-carboxamide]
> 1000 | CC(C)n1nc(-c2ccnc(N(C)C)c2)c2ncc(C(=O)NC3(C)CS(=O)(=O)C3)cc21 [Example 125, 3-(2-(dimethylamino)pyridin-4-yl)-1-isopropyl-N-(3-methyl-1,1-dioxidothietan-3-yl)-1H-pyrazolo[4,3-b]pyridine-6-carboxamide]
